Test results as given in ChEMBL document CHEMBL2073932, “Induction of human MDR1 gene expression by 2-acetylaminofluorene is mediated by effectors of the phosphoinositide 3-kinase pathway that activate NF-kappaB signaling” (Oncogene, 2002).

Tests used:
[1] = target: T1, ATP-dependent translocase ABCB1 (Homo sapiens, UniProt P08183); test: TP_TRANSPORTER: RNase protection assay in HepG2 cells; type: functional, cell-based
[2] = target: T1, ATP-dependent translocase ABCB1; test: TP_TRANSPORTER: RNase protection assay in embryonic 293 cells; type: functional, cell-based; conditions: hek293

T1 sequence (P08183 whole entry): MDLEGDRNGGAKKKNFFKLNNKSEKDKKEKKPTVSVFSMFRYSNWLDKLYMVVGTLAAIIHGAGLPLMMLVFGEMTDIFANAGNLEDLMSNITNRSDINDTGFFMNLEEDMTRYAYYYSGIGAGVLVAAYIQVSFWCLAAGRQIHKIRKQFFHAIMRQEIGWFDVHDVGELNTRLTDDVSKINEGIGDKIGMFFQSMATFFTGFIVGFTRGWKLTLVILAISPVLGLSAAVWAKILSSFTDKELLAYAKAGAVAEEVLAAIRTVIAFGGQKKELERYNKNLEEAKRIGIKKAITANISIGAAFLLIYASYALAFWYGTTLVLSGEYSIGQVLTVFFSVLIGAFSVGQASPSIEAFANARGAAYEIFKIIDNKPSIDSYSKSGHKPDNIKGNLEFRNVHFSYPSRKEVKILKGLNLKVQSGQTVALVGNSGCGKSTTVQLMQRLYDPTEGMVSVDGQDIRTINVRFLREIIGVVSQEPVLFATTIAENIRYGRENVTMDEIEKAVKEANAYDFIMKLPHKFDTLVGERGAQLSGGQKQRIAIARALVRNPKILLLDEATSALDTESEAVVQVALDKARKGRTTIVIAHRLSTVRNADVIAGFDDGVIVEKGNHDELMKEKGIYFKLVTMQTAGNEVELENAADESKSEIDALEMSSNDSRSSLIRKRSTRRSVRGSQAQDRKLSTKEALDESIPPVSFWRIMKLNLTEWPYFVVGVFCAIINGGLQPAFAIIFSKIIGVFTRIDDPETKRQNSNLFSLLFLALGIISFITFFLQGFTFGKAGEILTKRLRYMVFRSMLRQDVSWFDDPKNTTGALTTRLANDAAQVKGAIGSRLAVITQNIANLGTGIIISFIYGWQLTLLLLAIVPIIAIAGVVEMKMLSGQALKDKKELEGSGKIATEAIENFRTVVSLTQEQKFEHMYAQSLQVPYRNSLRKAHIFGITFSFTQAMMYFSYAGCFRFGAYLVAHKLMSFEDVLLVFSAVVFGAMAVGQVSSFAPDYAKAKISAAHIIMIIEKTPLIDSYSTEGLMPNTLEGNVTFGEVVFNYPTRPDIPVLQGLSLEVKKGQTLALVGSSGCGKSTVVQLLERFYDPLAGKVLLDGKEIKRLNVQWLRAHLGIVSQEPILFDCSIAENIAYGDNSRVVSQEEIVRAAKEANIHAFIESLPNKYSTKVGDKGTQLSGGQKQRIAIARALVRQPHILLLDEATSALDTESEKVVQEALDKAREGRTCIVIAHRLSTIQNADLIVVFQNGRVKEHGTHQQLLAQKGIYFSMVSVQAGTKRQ

CC(=O)Nc1ccc2c(c1)Cc1ccccc1-2 [2-ACETYLAMINOFLUORENE]
Activity [1]: inducer [+] | Activity [2]: inducer [+]
